{
  "source": "patent US20250382305A1",
  "about": "(PTC THERAPEUTICS, INC., priority 2022, published 2025)",
  "key": {"[1]": {"test_system": "Total ATXN3 (tATXN3) protein", "assay": "Endogenous Total ATXN3 (tATXN3) Protein Assay (MSD immunoassay of cell lysates)", "format": "cell-based", "conditions": "average IC50, total ATXN3 protein in cell lysate after 48 h with compound (Table 1)", "outline": "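By electrochemiluminescent MSD sandwich immunoassay (mouse monoclonal capture, rabbit monoclonal and SULFO-TAG anti-rabbit detection), endogenous ATXN3 was quantified in lysates of cells treated 48 h at 37° C at 10,000 cells/well. Treatment used a 7-point 3.16-fold duplicate dilution series, with average IC50 grouped into star categories.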"}, "ATXN3 pre-mRNA": {"test_system": "ATXN3 pre-mRNA", "assay": "RT-qPCR Assay to Quantify Exon 4 Skipping in ATXN3 pre-mRNA in Cells", "format": "cell-based", "conditions": "percent exon 4 skipping in ATXN3 pre-mRNA, RT-qPCR of cell lysates; average IC50", "outline": "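IC50 derives from a dose-response fit of percent exon 4 skipping, quantified by RT-qPCR on crude lysates. Compounds tested as 7-point 3.16-fold dilutions in duplicate; cells (10,000/well) were exposed for 24 h at 37 °C before lysis.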"}},
  "data": [
    {"molecule": "CC#Cc1c([C@@H]2CCCC[C@H]2N)n(C(F)F)c2c(NCc3ccco3)nc(Cl)nc12", "note": "[Compound 318, 6-((1R,2R)-2-aminocyclohexyl)-2-chloro-5-(difluoromethyl)-N-(furan-2-ylmethyl)-7-(prop-1-yn-1-yl)-5H-pyrrolo[3,2-d]pyrimidin-4-amine]", "values": [
      {"measurement": "IC50", "setting": "[1]", "result": "30 to 300", "unit": "nM"},
      {"measurement": "IC50", "setting": "ATXN3 pre-mRNA", "result": "30 to 300", "unit": "nM"}
    ]},
    {"molecule": "N[C@H]1CC=CC[C@@H]1c1sc2c(NCc3cccs3)cc(Cl)nc2c1C#CCCCCCO", "note": "[Compound 320, 7-(2-((1S,6S)-6-aminocyclohex-3-en-1-yl)-5-chloro-7-((thiophen-2-ylmethyl)amino)thieno[3,2-b]pyridin-3-yl)hept-6-yn-1-ol]", "values": [
      {"measurement": "IC50", "setting": "[1]", "result": "30 to 300", "unit": "nM"},
      {"measurement": "IC50", "setting": "ATXN3 pre-mRNA", "result": "30 to 300", "unit": "nM"}
    ]},
    {"molecule": "Cc1c([C@H]2COCC[C@@H]2N)sc2c(NCc3ccccc3)cc(Cl)nc12", "note": "[Compound 321, 2-((3R,4S)-4-aminotetrahydro-2H-pyran-3-yl)-N-benzyl-5-chloro-3-methylthieno[3,2-b]pyridin-7-amine]", "values": [
      {"measurement": "IC50", "setting": "[1]", "result": "30 to 300", "unit": "nM"},
      {"measurement": "IC50", "setting": "ATXN3 pre-mRNA", "result": "30 to 300", "unit": "nM"}
    ]},
    {"molecule": "[2H]C1=C([2H])C([2H])([2H])[C@H](c2sc3c(NC([2H])([2H])c4ccccc4)cc(Cl)nc3c2C)[C@@H](N)C1([2H])[2H]", "note": "[Compound 322, 2-((1S,6S)-6-aminocyclohex-3-en-1-yl-2,2,3,4,5,5-d6)-5-chloro-3-methyl-N-(phenylmethyl-d2)thieno[3,2-b]pyridin-7-amine]", "values": [
      {"measurement": "IC50", "setting": "[1]", "result": "30 to 300", "unit": "nM"},
      {"measurement": "IC50", "setting": "ATXN3 pre-mRNA", "result": "30 to 300", "unit": "nM"}
    ]},
    {"molecule": "N[C@@H]1CC=CC[C@H]1c1sc2c(NCc3ccco3)nc(Cl)nc2c1I", "note": "[Compound 323, 6-((1R,6R)-6-aminocyclohex-3-en-1-yl)-2-chloro-N-(furan-2-ylmethyl)-7-iodothieno[3,2-d]pyrimidin-4-amine]", "values": [
      {"measurement": "IC50", "setting": "[1]", "result": "30 to 300", "unit": "nM"},
      {"measurement": "IC50", "setting": "ATXN3 pre-mRNA", "result": "30 to 300", "unit": "nM"}
    ]},
    {"molecule": "N[C@H]1CC=CC[C@@H]1c1c(I)c2nc(Cl)cc(NCc3cccs3)c2n1C(F)F", "note": "[Compound 325, 2-((1S,6S)-6-aminocyclohex-3-en-1-yl)-5-chloro-1-(difluoromethyl)-3-iodo-N-(thiophen-2-ylmethyl)-1H-pyrrolo[3,2-b]pyridin-7-amine]", "values": [
      {"measurement": "IC50", "setting": "[1]", "result": "30 to 300", "unit": "nM"},
      {"measurement": "IC50", "setting": "ATXN3 pre-mRNA", "result": "30 to 300", "unit": "nM"}
    ]},
    {"molecule": "Cc1c([C@H]2CC=CC[C@@H]2N)sc2c(NCc3ccccc3)nc(Cl)nc12", "note": "[Compound 326, 6-((1S,6S)-6-aminocyclohex-3-en-1-yl)-N-benzyl-2-chloro-7-methylthieno[3,2-d]pyrimidin-4-amine]", "values": [
      {"measurement": "IC50", "setting": "[1]", "result": "30 to 300", "unit": "nM"},
      {"measurement": "IC50", "setting": "ATXN3 pre-mRNA", "result": "30 to 300", "unit": "nM"}
    ]},
    {"molecule": "N[C@@H]1CC=CC[C@H]1c1sc2c(NCc3ccco3)cc(Cl)nc2c1I", "note": "[Compound 327, 2-((1R,6R)-6-aminocyclohex-3-en-1-yl)-5-chloro-N-(furan-2-ylmethyl)-3-iodothieno[3,2-b]pyridin-7-amine]", "values": [
      {"measurement": "IC50", "setting": "[1]", "result": "30 to 300", "unit": "nM"},
      {"measurement": "IC50", "setting": "ATXN3 pre-mRNA", "result": "30 to 300", "unit": "nM"}
    ]},
    {"molecule": "CC#Cc1c([C@H]2CCCC[C@@H]2N)n(C(F)F)c2c(NCc3ccco3)nc(Cl)nc12", "note": "[Compound 331, 6-((1S,2S)-2-aminocyclohexyl)-2-chloro-5-(difluoromethyl)-N-(furan-2-ylmethyl)-7-(prop-1-yn-1-yl)-5H-pyrrolo[3,2-d]pyrimidin-4-amine]", "values": [
      {"measurement": "IC50", "setting": "[1]", "result": "30 to 300", "unit": "nM"},
      {"measurement": "IC50", "setting": "ATXN3 pre-mRNA", "result": "30 to 300", "unit": "nM"}
    ]},
    {"molecule": "CN(Cc1ccco1)c1cc(Cl)nc2c(C#CCCCO)c([C@H]3CC=CC[C@@H]3N)sc12", "note": "[Compound 336, 5-(2-((1S,6S)-6-aminocyclohex-3-en-1-yl)-5-chloro-7-((furan-2-ylmethyl)(methyl)amino)thieno[3,2-b]pyridin-3-yl)pent-4-yn-1-ol]", "values": [
      {"measurement": "IC50", "setting": "[1]", "result": "30 to 300", "unit": "nM"},
      {"measurement": "IC50", "setting": "ATXN3 pre-mRNA", "result": "30 to 300", "unit": "nM"}
    ]},
    {"molecule": "N[C@H]1COCC[C@@H]1c1sc2c(NCc3nccs3)cc(Cl)nc2c1Cl", "note": "[Compound 337, 2-((3R,4S)-3-aminotetrahydro-2H-pyran-4-yl)-3,5-dichloro-N-(thiazol-2-ylmethyl)thieno[3,2-b]pyridin-7-amine]", "values": [
      {"measurement": "IC50", "setting": "[1]", "result": "30 to 300", "unit": "nM"},
      {"measurement": "IC50", "setting": "ATXN3 pre-mRNA", "result": "30 to 300", "unit": "nM"}
    ]},
    {"molecule": "Cc1c([C@@H]2[C@@H](N)CCCC2(F)F)sc2c(NCc3cccs3)cc(Cl)nc12", "note": "[Compound 338, 2-((1R,6S)-6-amino-2,2-difluorocyclohexyl)-5-chloro-3-methyl-N-(thiophen-2-ylmethyl)thieno[3,2-b]pyridin-7-amine]", "values": [
      {"measurement": "IC50", "setting": "[1]", "result": "30 to 300", "unit": "nM"},
      {"measurement": "IC50", "setting": "ATXN3 pre-mRNA", "result": "30 to 300", "unit": "nM"}
    ]}
  ]
}
